# Experimental data reported in patent US9493435B2, “IRE-1α inhibitors” (MannKing Corporation, priority 2009, dated 2016).
# Columns and labels:
# [1] = molecular target: human IRE-1α (GST-IRE-1α) (Homo sapiens (Human), UniProt O75460); assay: IRE-1α assay (cleavage of mini-XBP-1 mRNA stem-loop substrate); type: biochemical; details: average IC50 for inhibition of IRE-1α in vitro
# Experimental: A fusion protein comprising glutathione S transferase (GST) and human IRE-1α (GST-IRE-1α) obtained from a 500 ml baculovirus-infected insect cell culture can be used to measure IRE-1α activity in vitro. Five μl of a reaction mixture comprising 1× reaction buffer (5× reaction buffer is 100 mM Hepes pH 7.5, 250 mM KOAc, 2.5 mM MgCl2), 3 mM DTT, and 0.4% polyethylene glycol water is added to each well of 384 well plates. Twenty-five nanoliters of a 1 mM test compound solution are added to test wells. […] Negative control wells contain only reaction mixture and test compound. After spinning the plates at 1200 rpm for 30 seconds, 3 μl of an IRE-1α human mini-XBP-1 mRNA stem-loop substrate [NT] ID NO:1), labeled with the fluorescent dye Cy5 at the [NT] end, are added to each well of a control plate. The plates are again spun at 1200 rpm for 30 seconds. […] The plates are covered with lids and incubated for one hour at 30° C. The plates are then transferred to an […] microplate reader. Data is analyzed using data analysis software, and the percent activity of IRE-1α is calculated.
# [2] = test system: IRE-1α-mediated XBP-1 splicing in human myeloma MM.1s cells; assay: Cellular XBP-1 splicing assay in myeloma cells (RT-PCR); type: cell-based; details: Homo sapiens, MM1.S; average EC50, endogenous XBP-1 splicing in myeloma cells, DTT stress
# Experimental: After an additional 45 minutes (2 hours total) with compound and DTT, the cells are harvested with TRIZOL® (a mono-phasic solution of phenol and guanidine isothiocyanate), and total RNA is prepared as directed by the manufacturer (Invitrogen). Human XBP-1 is amplified by RT-PCR with the following primers, which flank the 26 base unconventional intron excised by IRE-1α:
# RT-PCR of unstressed (U) cells then generates the upper band. When cells are stressed (S) with the endoplasmic reticulum (ER) stressing agent DTT, IRE-1α is activated due to accumulating unfolded protein and the resulting RT-PCR product is 26 base pairs shorter.
# Compounds which pass specificity assays are assayed for cellular EC50 using endogenous XBP-1 splicing in myeloma cells. XBP-1 is regulated through the excision of a 26 nucleotide intron from the XBP-1 mRNA by the highly specific endoribonuclease activity of IRE-1α. […] This splicing event is used to measure IRE-1α activity on XBP-1 mRNA in cells and tissues.
# Briefly, compounds are incubated in the presence or absence of an ER stress agent (e.g., DTT), and the ratio of XBP-1u (unspliced) to XBP-1s (spliced) is quantified by RT-PCR.
# Sequence of human IRE-1α (GST-IRE-1α) (O75460 19-977): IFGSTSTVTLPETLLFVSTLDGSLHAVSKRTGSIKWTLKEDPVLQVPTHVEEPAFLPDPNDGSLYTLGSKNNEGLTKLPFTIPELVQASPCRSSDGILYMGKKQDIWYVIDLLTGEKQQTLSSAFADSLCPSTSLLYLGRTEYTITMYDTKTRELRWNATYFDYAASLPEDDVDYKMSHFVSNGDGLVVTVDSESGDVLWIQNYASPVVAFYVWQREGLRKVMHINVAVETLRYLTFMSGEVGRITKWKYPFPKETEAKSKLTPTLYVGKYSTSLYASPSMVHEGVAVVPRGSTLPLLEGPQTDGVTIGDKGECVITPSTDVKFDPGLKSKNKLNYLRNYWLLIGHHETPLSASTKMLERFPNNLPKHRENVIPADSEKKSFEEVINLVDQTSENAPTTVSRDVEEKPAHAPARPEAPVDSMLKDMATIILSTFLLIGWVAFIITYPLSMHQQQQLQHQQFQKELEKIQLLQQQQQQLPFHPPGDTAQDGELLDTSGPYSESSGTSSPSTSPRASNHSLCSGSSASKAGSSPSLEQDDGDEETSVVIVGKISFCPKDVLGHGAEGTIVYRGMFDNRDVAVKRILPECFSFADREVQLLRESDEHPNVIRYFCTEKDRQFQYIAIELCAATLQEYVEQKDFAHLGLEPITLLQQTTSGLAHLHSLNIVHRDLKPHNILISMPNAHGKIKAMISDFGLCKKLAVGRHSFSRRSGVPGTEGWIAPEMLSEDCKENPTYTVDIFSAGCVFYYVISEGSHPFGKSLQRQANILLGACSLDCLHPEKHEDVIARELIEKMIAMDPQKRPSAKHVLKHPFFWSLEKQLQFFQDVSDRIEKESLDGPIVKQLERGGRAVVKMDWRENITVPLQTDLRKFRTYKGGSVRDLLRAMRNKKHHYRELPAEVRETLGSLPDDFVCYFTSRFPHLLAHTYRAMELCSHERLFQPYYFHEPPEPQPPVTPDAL
Compound,IC50 [1] [µM],EC50 [2] [µM]
CCN(CC)C(=O)c1ccc(-c2ccc3c(C=O)c(O)ccc3c2)cc1 [Compound 2],< 1,< 10
O=Cc1c(O)ccc2cc(-c3ccc(C(=O)N4CCCC4)cc3)ccc12 [Compound 3],< 1,< 10
COCCNC(=O)c1cccc(-c2ccc3c(C=O)c(O)ccc3c2)c1 [Compound 4],< 0.1,< 10
CCN(CC)C(=O)c1cccc(-c2ccc3c(C=O)c(O)ccc3c2)n1 [Compound 7],< 1,10
COCCNC(=O)c1ccc(-c2ccc3c(C=O)c(O)ccc3c2)cc1 [Compound 10],< 1,< 10
CNC(=O)c1ccc(-c2ccc3c(C=O)c(O)ccc3c2)s1 [Compound 11],< 1,10
CCCNC(=O)c1cccc(-c2ccc3c(C=O)c(O)ccc3c2)n1 [Compound 16],< 0.1,10
COc1ccc(CNC(=O)c2cccc(-c3ccc4c(C=O)c(O)ccc4c3)n2)cc1 [Compound 17],< 1,> 10
O=Cc1c(O)ccc2cc(/C=C/C(=O)O)ccc12 [Compound 23],< 1,10
O=Cc1c(O)ccc2cc(-c3cc(C(=O)N4CCOCC4)ccc3Cl)ccc12 [Compound 24],> 1,> 10
Cc1cc(C(=O)N2CCOCC2)sc1-c1ccc2c(C=O)c(O)ccc2c1 [Compound 25],< 0.1,> 10
CN(C)C(=O)c1ccc(Cl)c(-c2ccc3c(C=O)c(O)ccc3c2)c1 [Compound 26],> 1,> 10
CN1CCN(C(=O)c2ccc(Cl)c(-c3ccc4c(C=O)c(O)ccc4c3)c2)CC1 [Compound 27],< 1,> 10
O=Cc1c(O)ccc2cc(-c3ccc(C(=O)N4CCOCC4)cc3Cl)ccc12 [Compound 29],< 1,> 10
CN(C)C(=O)/C=C/c1ccc2c(C=O)c(O)ccc2c1 [Compound 31],< 0.1,> 10
O=Cc1c(O)ccc2cc(/C=C/C(=O)N3CCOCC3)ccc12 [Compound 32],< 0.1,< 10

# Further lines, results first:
IC50 [1] [µM],EC50 [2] [µM],Compound
< 0.1,< 10,O=Cc1c(O)ccc2cc(-c3cccc(C(=O)N4CCCC4)c3)ccc12 [Compound 1]
< 0.1,< 10,CN1CCN(C(=O)c2ccc(-c3ccc4c(C=O)c(O)ccc4c3)cc2)CC1 [Compound 5]
< 0.1,> 10,COCCNC(=O)c1cccc(-c2ccc3c(C=O)c(O)ccc3c2)n1 [Compound 6]
< 0.1,< 10,CNC(=O)c1cccc(-c2ccc3c(C=O)c(O)ccc3c2)c1 [Compound 8]
> 1,> 10,CNC(=O)c1ccc(-c2ccc3c(C=O)c(O)ccc3c2)cc1 [Compound 9]
< 1,10,CN(C)C(=O)c1ccc(-c2ccc3c(C=O)c(O)ccc3c2)s1 [Compound 12]
< 0.1,> 10,CNC(=O)c1cccc(-c2ccc3c(C=O)c(O)ccc3c2)n1 [Compound 13]
< 0.1,< 10,O=Cc1c(O)ccc2cc(-c3cccc(C(=O)N4CCCC4)n3)ccc12 [Compound 14]
< 1,> 10,COCCNC(=O)c1ccc(-c2ccc3c(C=O)c(O)ccc3c2)s1 [Compound 15]
< 1,< 10,CCOC(=O)/C=C/c1ccc2c(C=O)c(O)ccc2c1 [Compound 22]
> 1,> 10,CN(C)C(=O)c1ccc(-c2ccc3c(C=O)c(O)ccc3c2)c(Cl)c1 [Compound 28]
< 1,–,CN1CCN(C(=O)c2ccc(Cl)c(-c3ccc4c(C=O)c(O)ccc4c3)c2)CC1 [Compound 30]
< 1,–,CN(C1CCCN(c2ccc3c(C=O)c(O)ccc3c2)C1)S(C)(=O)=O (stereo not drawn) [Compound 123]
> 1,–,CS(=O)(=O)NC1CCN(c2ccc3c(C=O)c(O)ccc3c2)CC1 [Compound 175]
